Results as given in patent publication US7306811B2, “Fungicide composition based on halosulphone in particular for packaging” (priority 2000, dated 2007).

Test system: six mushroom strains: Aspergillus Sydowi, Aspergillus Versicolor, Cladosporium Herbarum, Cladosporium Sphaerospernum, Penicillium Citrinum and Penicillium …
Assay: Development of moulds on treated paper, standard AFNOR X 41 517
Conditions: overall judgement of the paper mould test
Protocol: The following test was carried out. Two surfaces of a woodless industrial paper weighing 80 g/m^2 dry, having a 1-minute COBB value of 25 to 35, were brought into contact with six mushroom strains for 14 days under the quality test conditions of the standard AFNOR X 41 517: the strains used were Aspergillus Sydowi, Aspergillus Versicolor, Cladosporium Herbarum, Cladosporium Sphaerospernum, Penicillium Citrinum and Penicillium Corylophilum. At the end of this period, visual assessment of the development of moulds was noted using a code from 0 to 6+, the value 6+ being allocated to the untreated control, while the notation 0 corresponded to no development of the seeded moulds.
The fungicide solutions used in this test were prepared in the same way as mentioned above. With regard to the fungicide T1, chlorothalonil was mixed in water. The fungicidal product T2 was prepared on the basis of di-iodo-ethyl-p-tolyl-sulphone only. The fungicide T3 was prepared from a mixture of chlorotalonyl and a zinc pyrithione. The fungicide T4 was prepared from a mixture of Amical (di-iodomethyl-p-tolyl-sulphone, and zinc pyrithione. Finally the fungicide T5 corresponds to the mixture given by way of example above according to the invention, i.e. a mixture of chlorotalonyl and di-iodo-methyl-p-tolyl-sulphone or Amical.

Structure (SMILES)	fungicidal quality in words, as seen from the Table
N#Cc1c(Cl)c(Cl)c(Cl)c(C#N)c1Cl [Chlorothalonil alone T1, 2,4,5,6 tetrachloro-1,3 benzene dicarbonitrile]	average fungicide
Cc1ccc(S(=O)(=O)C(I)I)cc1 [DIMPTS alone T2, di-iodomethyl-p-tolyl-sulphone]	excellent fungicide
